In general, inhibition refers to the relative decrease from the control value, in per cent.

Structures are written as SMILES. Where only a bound is given, the exact number is not on record here.

The source of these data is patent US11911397B2, “Anordrin compositions and methods for treating diseases” (Zhejiang Jiachi Development Pharmaceuticals LTD, priority 2014, dated 2024).

What all share (type): cell-based
The subject of experiment [1] is MCF-7 cells. Description: MCF-7 cell growth, cell counting.
Procedure: To test this hypothesis we induced MCF-7 cells in IL-free medium for two months. Drug sensitivity of cell growth was tested by counting the cell number after 144 h of inoculation (FIG. 13A).
Experiment [2] deals with integrin β1 in MDA-MB-231 cells. Description: integrin β1 cell surface distribution and expression in MDA-MB-231 cells. The settings on record: 6 μM. The procedure: (§1) MCF-7 cells were harvested and lysed in RIPA buffer. 40 μg total protein of cellular lysate was used for Western blotting to determinate the expression level of integrin β1.
(§2) Integrin translocation to the cell surface is regulated by the p130Cas scaffold protein complex to play a fundamental role in cell attachment and migration. Integrin α3β1 has been reported to be involved in MCF-7 cell attachment as well as MDA-MB-231 cell migration (25, 26). […] To verify the hypothesis, we treated MCF-7 and MDA-MB-231 cells with 6 μM anordrin for 16 hours and measured cell surface integrin β1 distribution using a FITC-labeled anti-integrin β1 antibody. […] Taken together, we conclude that anordrin or analog thereof (such as […]) binds to membrane-associated ER to inhibit cell migration and proliferation.
(§3) Transwell and flow cytometry assay: Cells were starved for 48 hours in phenol red free medium containing 5% charcoal-stripped FBS, and then changed into phenol red free medium for an additional 24 hours. Transwell was performed following the Chemicon kit instructions (CAT #ECM551). Briefly, cells were trypsinized, washed using 1×DPBS containing Ca2+ and Mg2+ (Sigma) and resuspensed in serum and phenol red free medium at a cell density of 0.5×10^6 cells/ml. […]

In experiment [3] the test system is MCF-7 cells. Put plainly: 2-NBDG glucose uptake and cellular ATP in MCF-7 cells.
Procedure: Glucose uptake was measured using fluorescently labeled glucose (2-NBDG), and ATP concentrations were measured using an ATP analysis kit.
A further experiment deals with T47D cells. Put plainly: EGF-induced T47D cell growth. As to conditions: 7.5 μM, 10 ng/ml EGF.
The subject of experiment [4] is integrin β1 in MCF-7 cells. Put plainly: integrin β1 cell surface distribution and expression in MCF-7 cells. As to conditions: 6 μM. The protocol: as §1, §2, §3
The test system of experiment [5] is MCF-7 cells. Description: glucose consumption and medium pH of MCF-7 cells.

As for `C#C[C@@]1(OC(=O)CC)C[C@@H]2CC[C@@H]3[C@H](CC[C@@]4(C)[C@H]3CC[C@]4(C#C)OC(=O)CC)[C@@]2(C)C1` [anordrin, 2α,17α-diethynyl-A-nor-5α-androstane-2β,17β-diol dipropionate], the “effect on the ability of tamoxifen to inhibit MCF-7 cell growth” value with MCF-7 cells [1] (200 nM anordrin in the culture medium) is reported as “did not affect”. The compound further gave an inhibition at 7.5 µM in the experiment on MCF-7 cells [1] (Homo sapiens, MCF7, 7.5 μM) greater than 50%. For the same compound, the “expression level of integrin β1” value in experiment [2] and in experiment [4] was “did not affect” in each case. Moreover, the “integrin β1 distribution to the plasma membrane” value in experiment [2] (16 hours) and in experiment [4] (16 hours) was “down-regulated” in each case. Moreover, in the experiment on MCF-7 cells [3], the 2-NBDG uptake result is “enhanced”. Moreover, the “cellular ATP concentrations” value in the experiment on MCF-7 cells [3] is “enhanced”. Besides, the EGF-induced cell growth result with T47D cells is recorded as “blocked the increase in cell growth”. In the experiment with MCF-7 cells [5] (200 nM anordrin with 1 μM tamoxifen, MCF-7, 60 hours), the “effect on tamoxifen inhibition of glucose metabolism” value is recorded as “reversed the inhibitory effect”. Also, the “pH of culture medium” value in the experiment with MCF-7 cells [5] (MCF-7 cells) is “decreased pH”. The “glucose concentration of media / glucose consumption” value in the experiment on MCF-7 cells [5] (MCF-7 cells, 60 hours) was “lower”.
